Experiments:
[1] = test system: passively transferred adjuvant-induced arthritis; test: Passively transferred adjuvant arthritis; format: in vivo, DA rats; details: for swelling in the affected joints at the end of the treatment period: controls severe swelling
Method: The experiment in this Example was designed to study the effect of the agents of the present invention in vivo on a disease that requires T lymphocyte migration into a specific tissue (synovium). Male DA rats, 8 to 10 week old, were immunized with three 100 μl injections of CFA intradermally at the base of the tail. The CFA was prepared by mixing 8 mg/ml of M. butyricum (Difco Laboratories, USA) that had been ground to a fine powder using a mortar and pestle, in 85% light mineral oil (Sigma, USA) and 15% mannide monooleate (Sigma) and emulsifying this suspension, one part in one part saline. Thus, the final emulsion contained 4 mg/ml of M. butyricum. Ten days after immunization, the rats were euthanized and their spleens removed aseptically. A single cell suspension in lymphocyte culture medium with 10% FCS was prepared as described above and adjusted to a concentration of 2×10^6 cells/ml. Con A was added at a final concentration of 2 μg/ml. The cells were cultured at 37° C. in an atmosphere of 5% carbon dioxide for 72 hours. Groups of 4 or 5 DA rats, 6 to 8 weeks of age were anesthetized with diethyl ether and implanted sc on the flank with Alzet 2002 (“2 week delivery”) or Alzet 2001 (“1 week delivery”) mini-osmotic pumps (Alza Corp., Palo Alto Calif., USA). One treatment group received 1-(2,4,-diimethyl phenyl)-6-phosphono-mannoside in the one week delivery Alzet 2001 mini-osmotic pumps. The drug was delivered at a dose of 25 mg/kg/day. The control group for this experiment received identical mini-osmotic pumps containing normal saline. In a second experiment another group of DA rats received 1-(2,4,-diimethyl phenyl)-6-phosphono-mannoside in the “2 week delivery” Alzet 2002 mini-osmotic pumps. This drug was delivered at a dose of 37 mg/kg/day. Control animals for this group received saline delivered in identical mini-osmotic pumps. While the animals were recovering from anesthesia, the above cultured lymphocytes which had been harvested and washed twice in HBSS were resuspended in normal saline and injected iv (lateral tai vein) into recipient rats, each of which received 75-90×10^6 cells in 0.5 ml. After 5 to 8 days, a characteristic thickening and cutaneous hyperemia of the distal joints of the hind legs became clinically apparent in saline treated control animals. Disease severity was evaluated and graded in each group by daily measurement of the mediolateral widths of both ankle joints. The data were expressed as the mean of the change (compared with width prior to cell injection) in mediolateral ankle width expressed in millimeters (±standard error of the mean).

[2] = test system: 51Cr-labeled T lymphocyte migration into the spleen; test: Inhibition of lymphocyte migration into lymphoid tissue (spleen) in vivo; parameters: species or system Balb/c mice; details: 5 mg per mouse iv with labeled cells; spleens removed 1.5 hours after injection; vs negative controls
Method: Lymphocytes were obtained from spleens of 6-8 week old female specific pathogen-free Balb/c mice (19-21 g). Single cell suspensions prepared by conventional means (pushing through a stainless steel screen). Red blood cells were lysed by treating with a solution of bicarbonate buffered ammonium chloride-EDTA (pH 7.3) and the preparation strained through a Falcon 2350 cell strainer. All cell preparative steps were performed on ice. Cell were suspended in a conventional lymphocyte culture medium (DMEM plus glucose, folic acid, L-asparagine, sodium bicarbonate, L-glutamine, sodium pyruvate, HEPES, 2-mercaptoethanol, penicillin, streptomycin, neomycin, and 2% FCS).
B lymphocytes were depleted by suspending the cells in purified rat anti-mouse CD45/B220 antibody (RA3-6B2 clone; PharMingen, USA) at a concentration of 4×10^7 cells/ml and incubated on ice for 20 minutes. An equal volume of culture medium (as above) was added and the cells centrifuged (200×g) and resuspended at a concentration of 10^7 cells/ml in BioMag goat ant-rat IgG (H&L) (“GARIG”) conjugated to magnetic beads (Bio Mag; Perseptive Diagnostics, Polysciences, Inc., USA). Following a 20 minute incubation on ice, with agitation every 5 minutes, cells binding to the GARIG/anti-CD45/B220 antibody complex were removed using magnetic separation (Dynal MPC-6, Dynal, USA). This procedure was repeated 4 times, resulting in a cell population containing approximately 80-90% T lymphocytes (determined by FACS analysis).
The cells were then washed in Hanks balanced salt solution (HBSS), resuspended in 5 ml of HBSS, and radiolabeled with ^51Cr for 30 minutes at 37° C. (as described above). The labeled cells were washed in PBS, centrifuged (200×g), and a portion were resuspended at a concentration of 3×10^7 cells/ml in either PBS (negative control) or PBS containing phenyl mannoside 6-phosphate (25 mg/ml in PBS; positive control) or PBS containing the test compound (25 mg/ml), and stored on ice. Cell viability was confirmed throughout the procedures by trypan blue exclusion. Balb/c mice were injected intravenously (iv) into the lateral tail vein with 0.2 ml containing 6×10^6 labeled lymphocytes and 0.2 ml of either PBS (negative control), 5 mg positive control or 5 mg test compound. All groups of mice were weight matched (±0.5 g).
Spleens from recipient mice were removed 1.5 hours after injection, and the cell-associated radioactivity was determined using a gamma counter (as above). Results of inhibition of lymphocyte migration into the spleen were expressed as a percentage reduction in the CPM of the spleens from treated animals compared with negative controls.
The phosphono-mannoside compounds of the present invention and their relative inhibition of lymphocyte migration in vivo (compared to negative controls) are presented in Table 2.

## Cc1ccc(O[C@H]2O[C@H](CCP(=O)(O)O)[C@@H](O)[C@H](O)[C@@H]2O)c(C)c1
[1]; 25 mg/kg/day, end of one week treatment
  difference in disease status of treated versus control animals: highly statistically significant difference
[1]; 25 mg/kg/day, one week delivery Alzet 2001 pump
  swelling in the affected joints at the end of the treatment period: little swelling
[1]; 37 mg/kg/day, end of two week treatment
  difference in disease status of treated versus control animals: highly statistically significant difference
[1]; 37 mg/kg/day, two week delivery Alzet 2002 pump
  swelling in the affected joints at the end of the treatment period: little swelling
[2]
  % Inhibition of lymphocyte migration into spleens: 82.4%

Reference: patent publication US7648966B2, “Mannose-6-phosphonate compounds for the treatment of inflammatory diseases” (Pharmaxis Pty Limited, priority 2003, dated 2010)
